Molecular target: Tyrosine-protein kinase BTK (Homo sapiens, UniProt Q06187)
Assay: Inhibition of human BTK-A using phosphorylated substrate in presence of ATP by microplate reader assay

Sequence of Tyrosine-protein kinase BTK (Q06187 whole entry): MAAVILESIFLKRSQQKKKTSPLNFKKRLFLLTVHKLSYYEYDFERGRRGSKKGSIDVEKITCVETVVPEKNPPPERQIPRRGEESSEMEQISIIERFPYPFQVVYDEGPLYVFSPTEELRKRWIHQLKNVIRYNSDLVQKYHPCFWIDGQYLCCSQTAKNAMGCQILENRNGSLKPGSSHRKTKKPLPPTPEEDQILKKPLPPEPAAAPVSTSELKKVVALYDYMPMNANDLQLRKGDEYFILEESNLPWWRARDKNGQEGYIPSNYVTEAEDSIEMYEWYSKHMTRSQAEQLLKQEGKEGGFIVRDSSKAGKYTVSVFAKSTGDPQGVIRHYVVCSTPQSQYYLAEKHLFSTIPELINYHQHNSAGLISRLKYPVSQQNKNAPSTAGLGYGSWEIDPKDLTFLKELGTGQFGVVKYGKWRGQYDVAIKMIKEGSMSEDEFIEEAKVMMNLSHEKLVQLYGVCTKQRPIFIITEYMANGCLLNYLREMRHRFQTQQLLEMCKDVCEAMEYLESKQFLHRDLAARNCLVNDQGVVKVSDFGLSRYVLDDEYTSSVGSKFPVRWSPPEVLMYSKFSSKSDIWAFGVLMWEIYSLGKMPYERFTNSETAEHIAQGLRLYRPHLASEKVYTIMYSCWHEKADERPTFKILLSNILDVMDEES

Question: For `CN(C)C(=O)N1CC=C(c2cc3c(-c4cccc(-n5ccc6cc(C7CC7)cc(F)c6c5=O)c4CO)nc(N)nc3[nH]2)CC1`, which IC50 is on record?
Answer: The IC50 was 0.54 nM.

Question: For `Nc1nc(-c2cccc(-n3ccc4cc(C5CC5)cc(F)c4c3=O)c2CO)c2cc(-c3ccncc3)[nH]c2n1`, which IC50 is on record?
Answer: Its IC50 is 0.14 nM.

From ChEMBL document CHEMBL5053510, “Discovery of AS-1763: A Potent, Selective, Noncovalent, and Orally Available Inhibitor of Bruton's Tyrosine Kinase” (J Med Chem, 2021)
